{
  "source": "patent US20180245049A1",
  "about": "“METHOD FOR INDUCING DIFFERENTIATION OF STEM CELLS” (STICHTING KATHOLIEKE UNIVERSITEIT, priority 2015, published 2018)",
  "key": {"hMSCs [1]": {"tested_on": "hMSCs", "assay": "Live/dead assay (calcein-AM and MTT) of gel-encapsulated cells", "type": "cell-based, human", "settings": "live/dead assay after 48 h and 96 h of culture, 50 nM", "procedure": "Cell Culture. Human Mesenchymal Stem Cells (hMSCs) were obtained from Lonza, Inc. (Switzerland). Cells were then cultured in α-MEM medium (lnvitrogen) supplemented with 10% fetal bovine serum (FBS), 1% penicillin/streptomycin and incubated in a humidified atmosphere containing 5% (v/v) CO2 at 37° C. For the encapsulation of cells in the gels, first, the cell pellets were obtained by centrifugation. Then 500 μL of the cold polymer solution (˜10° C.) was added directly to the pellet, followed by a gentle pipetting up and down 3-4 times to ensure a homogeneous mixture that was directly put onto a cover slip in a 6-well plate (also kept cold). Thereafter, the solution was sandwiched between two cover slips and the well plate was transferred to a 37° C. incubator. The volume of the suspension was chosen (500 μL) in order to obtain hydrogel thickness in the range of 3 mm. […] To evaluate proliferation, total double-stranded DNA content was determined by using the PicoGreen assay as previously reported.\nMTT Assay. As described in literature, briefly, cell viability was determined by the 3-(4,5-dimethylthiazol-2-yl)-2,5-diphenyltetrazolium bromide (MTT) assay and the data are presented as a percentage of control viability.\nLive/Dead Staining. Cell viability was determined with the live/dead viability/cytotoxicity kit (Molecular Probes), according to the manufacturer's protocol."}, "hMSCs [2]": {"tested_on": "hMSCs", "assay": "Lineage commitment and differentiation of gel-encapsulated hMSCs in bipotential differentiation medium (STRO-1, Osterix, Oil-red O staining)", "type": "cell-based, human", "procedure": "Cell Culture. Human Mesenchymal Stem Cells (hMSCs) were obtained from Lonza, Inc. (Switzerland). Cells were then cultured in α-MEM medium (lnvitrogen) supplemented with 10% fetal bovine serum (FBS), 1% penicillin/streptomycin and incubated in a humidified atmosphere containing 5% (v/v) CO2 at 37° C. For the encapsulation of cells in the gels, first, the cell pellets were obtained by centrifugation. Then 500 μL of the cold polymer solution (˜10° C.) was added directly to the pellet, followed by a gentle pipetting up and down 3-4 times to ensure a homogeneous mixture that was directly put onto a cover slip in a 6-well plate (also kept cold). Thereafter, the solution was sandwiched between two cover slips and the well plate was transferred to a 37° C. incubator. The volume of the suspension was chosen (500 μL) in order to obtain hydrogel thickness in the range of 3 mm. […] Afterwards, the gel becomes stiffer with time and attains the final stiffness in 2-3 minutes. This favors the supporting of cells in 3D rather than the cells settling at the bottom. After gel formation, the two cover slips were removed and α-MEM medium (without serum) was added. All cell culture experiments were carried out without any serum in the medium for the first 6 h of culture. Then, α-MEM medium with 10% serum was added. All cells were used at low passage numbers (≤passage 4), were subconfluently cultured and were seeded at 10^6 cells/mL for the purpose of the experiments and in order to avoid cell-cell contacts. The lineage commitment and differentiation of the gel encapsulated hMSCs after 96 h and 3 weeks of culture, respectively, were investigated with bipotential differentiation medium (1:1 v/v osteogenic and adipogenic media, Lonza). For all the experiments, a non-functionalized soft polymer gel (cell culture in growth medium) served as control. […] The pharmacological agents used were 50 μM Blebbistatin (EMD Biosciences-Calbiochem), 1 μM cytochalasin D (Sigma) and 50 nM Taxol (Abcam). The hMSCs were exposed to each pharmacological agent for 1 h, 24 h and 72 h, respectively, after seeding on a modified polymer. For antibody inhibition studies, cells were preincubated with 5 ng/mL anti-α1, 2, 3 and 5-β1, 2 (all from Santa Cruz Biotechnology). For competition experiments with soluble RGD peptides, the cells were incubated in 1 mL of cell culture media containing 200 μg of RGDS peptides during 20 min on plastic and then transferred to the polymer gels. To evaluate proliferation, total double-stranded DNA content was determined by using the PicoGreen assay as previously reported.\nImmunostaining. […]"}},
  "data": [
    {"smiles": "CC(=O)O[C@H]1C(=O)[C@@]2(C)[C@H]([C@H](OC(=O)c3ccccc3)[C@]3(O)C[C@H](OC(=O)[C@H](O)[C@@H](NC(=O)c4ccccc4)c4ccccc4)C(C)=C1C3(C)C)[C@]1(OC(C)=O)CO[C@@H]1C[C@@H]2O", "note": "[Taxol]", "values": [
      {"measurement": "cell viability after Taxol treatment", "setting": "hMSCs [1]", "value": "did not affect cell viability"},
      {"measurement": "hMSCs commitment after Taxol treatment", "setting": "hMSCs [2]; 50 nM", "value": "decrease in hMSCs commitment"}
    ]},
    {"smiles": "Cc1ccc2c(c1)C(=O)C1(O)CCN(c3ccccc3)C1=N2", "note": "(centres unmarked) [blebbistatin]", "values": [
      {"measurement": "STRO-1 in encapsulated cells in presence of blebbistatin", "setting": "hMSCs [2]; 50 μM, all the polymer gels", "value": "high levels of STRO-1"},
      {"measurement": "hMSCs commitment in presence of blebbistatin", "setting": "hMSCs [2]; 50 μM, all the polymer gels", "value": "inhibited the hMSCs commitment"}
    ]},
    {"smiles": "C=C1[C@@H](C)[C@H]2[C@H](Cc3ccccc3)NC(=O)[C@]23[C@H](OC(C)=O)/C=C/[C@@](C)(O)C(=O)[C@@H](C)C/C=C/[C@H]3[C@@H]1O", "note": "[cytochalasin-D]", "values": [
      {"measurement": "hMSCs commitment after cytochalasin-D treatment", "setting": "hMSCs [2]; 1 μM, towards both osteogenesis and adipogenesis", "value": "overall decreased commitment"}
    ]}
  ]
}
